Literature values in US11017689B2, “Very low nicotine cigarette blended with very low THC cannabis” (priority 2018, dated 2021).

Columns and labels:
[1] = nicotine in tobacco smoke, inhaled
[2] = system: nicotine self-administration; conditions: rats
[3] = system: nicotinic acetylcholine receptors (nAChRs)
[4] = administered orally to rats

Structure (SMILES) | time from inhaling the smoke until nicotine reaches the brain [1] | dose-effect function on nicotine self-administration [2] | reduction of nicotine infusions per session ([2]; 2.0 mg/kg of anabasine) | increase in nicotine self-administration ([2]; pretreatment with 0.02 mg/kg anabasine) [%] | affinity for nicotinic acetylcholine receptors (nAChRs) [3] | reduction of nicotine self-administration ([2]; pretreatment with 2.0 mg/kg anatabine) | elimination half-life relative to that of nicotine [4] [fold]
CN1CCCC1c1cccnc1 (centres unmarked) [nicotine] | approximately ten | – | – | – | – | – | –
c1cncc([C@@H]2CCCCN2)c1 [anabasine] | – | biphasic | over 50% | 25 | affinity | – | –
C1=CCC(c2cccnc2)NC1 (centres unmarked) [anatabine] | – | – | – | – | affinity | nearly half | 2 to 2.5
